Results on 1 molecule are retold here after PMC12388496, “Discovery of (E)-1,3-Diphenyl-2-Propen-1-One Derivatives as Potent and Orally Active NLRP3 Inflammasome Inhibitors for Colitis” (Molecules, 2025).

For one test, the system named is NLRP3 inflammasome. In words: Western blot of NLRP3 inflammasome proteins in BMDMs. The format is cell-based, mouse. The conditions noted are these: BMDM, LPS and Nigericin. As for the experimental part: To further investigate the potential molecular mechanisms of compound F14, an in vitro inflammation model was constructed using BMDM cells.
Inoculate BMDMs cells into a 6-well plate with 4-6 × 10^6 cells per well and culture overnight. Pre-treat with LPS (200 ng/mL) for 3 h, then treat with different concentrations of compound F14 for 30 min, and add Nigericin (10 µM) to activate BMDMs for 30 min. Add RIPA (Beyotime Biotechnology, Shanghai, China) for lysis. Select SDS-PAGE with different concentrations for electrophoresis, and then transfer to PVDF membrane (Millipore Immobilon-P, Burlington, MA, USA). Incubate the antibody imprint overnight at 4°C, and then incubate with HRP conjugated secondary antibody for 1 h.

For test [1], the system named is DSS-induced acute colitis. Kind of test: DSS-induced acute colitis in mice. The format is in vivo, mouse. The following applies: 10 and 20 mg/kg daily, gavage. As for the experimental part: To further validate the in vivo biological activity of compound F14, we used the DSS-induced mouse colitis model to assess its anti-inflammatory effects. The experimental design was as follows: mice were divided into the normal group, model group (DSS), positive control group (DSS + sulfasalazine), low-dose group (DSS + 10 mg/kg), and high-dose group (DSS + 20 mg/kg). Mice in the normal group were given regular water with no treatment; the positive control group received sulfasalazine as the positive drug at a daily dose of 200 mg/kg; the low-dose and high-dose groups were administered 10 mg/kg and 20 mg/kg of F14, respectively, each day. During the experiment, acute colitis in mice was induced by drinking water containing 3% DSS […]. The mice’s body weight changes, fecal blood presence, and disease activity index (DAI) were recorded daily. […] Goblet cells are a type of colon epithelial cell, and their primary function is to secrete mucus, which helps maintain the stability of the intestinal environment. During the pathological process of colitis, the number of goblet cells decreased, and their mucus-secreting function was impaired. In histological examinations, the number and secretion function of goblet cells are important indicators of colitis.
Male C57BL/6 mice, 18–20 g, were purchased from Charles River (China). All experiments and animal care procedures were approved by the Animal Resource Center of Anhui Medical University by the National Institutes of Health Guide for the Care and Use of Laboratory Animals (20230875). This study used DSS induction to establish an acute colitis model in mice. Mice in the experimental group were given free access to a 3% DSS solution for 7 days to induce an intestinal inflammation phenotype. The positive control group (sulfasalazine, 200 mg/kg) and the treatment group were gavage administration daily, using a 0.5% carboxymethyl cellulose sodium (CMC-Na) solution as the drug vehicle. The normal control and model groups received an equal volume of blank CMC-Na solution. Daily monitoring of weight changes and clinical symptoms was performed during the experimental period, including fecal characteristics (formed/loose/watery stools) and the degree of rectal bleeding (occult blood/gross blood in feces). On day 10, at the end of the experiment, the colonic sections of the mice were carefully excised. The excised colon was examined, and the length of the colon was measured. Some colon tissues were fixed in 4% formaldehyde and used for HE staining and immunohistochemical analysis for subsequent evaluations.

Test [2] has as its system IL-1β secretion in BMDM cells (NLRP3 inflammasome). In words: ELISA of IL-1β secretion in LPS/nigericin-treated BMDM cells. The format is cell-based. The following applies: Mus musculus. As for the experimental part: When L929 cells reach the logarithmic phase, collect the cell supernatant. Filter the supernatant using a 0.22 μm filter and store it at −20 °C for future use. The 7-week-old C57BL/6 mice were selected as the source of primary bone marrow macrophages. The mice were euthanized using the cervical dislocation method. The ends of the femurs were cut, and the bone marrow was flushed into a 15 mL centrifuge tube using a 5 mL syringe. Once all the bone marrow was collected, an appropriate amount of red blood cell lysis buffer was added to the centrifuge tube. The mixture was incubated for 3–5 min, with repeated pipetting to thoroughly lyse the red blood cells. The cells were then centrifuged and collected. Add 30–40% L929 cell supernatant or M-CSF stimulatory factor to the culture dish. Culture the cells in a cell incubator at 37 °C with 5% CO2. Observe the cell condition daily, and once most cells have adhered to the surface, proceed with subsequent experiments.
Inoculate 1.0 × 10^5 BMDMs cells per well into a 96 well plate and culture overnight. Stimulate the cells with lipopolysaccharide (LPS) at a concentration of 0.2 μg/mL for 3 h, then add different concentrations of the test compounds and incubate for 30 min. Finally, add Nigericin at a concentration of 10 μM to continue the induction for 30 min. Collect the cell supernatant and measure the IL-1β secretion level in the supernatant using an ELISA kit, following the instructions provided, and calculate the IC50 value based on the relevant calculations. To ensure the accuracy and reliability of the experimental results, all experiments were repeated three times, with each experiment performed independently.

A further test relates to BMDM cells. Kind of test: MitoTracker/MitoSOX staining and ROS detection (DCFH-DA flow cytometry) in BMDMs. The following applies: LPS and Nigericin. The format is cell-based, mouse. The source says: Mitochondrial dysfunction and excessive production of reactive oxygen species (ROS) are key upstream signaling events in the activation of the NLRP3 inflammasome. To investigate whether compound F14 affects mitochondrial damage and ROS production, we performed staining experiments using MitoTracker and MitoSOX, followed by imaging and analysis using a confocal microscope. […] To further verify the effect of F14 on ROS levels, we used flow cytometry to measure intracellular ROS levels in BMDM cells stimulated with Nigericin.
BMDMs were seeded at a density of 1.0 × 10^6 cells per well in a 6-well plate, and the cell treatment was performed as described above. DCFH-DA probe was added to each well at a 1:1000 dilution (prepared in serum-free medium), and the cells were incubated at 37 °C in the dark for 20 min. The cells were gently mixed every 5 min to ensure uniform probe penetration. The cells were washed three times with PBS, and ROS levels were measured using flow cytometry (excitation/emission wavelengths: 488/525 nm).

As for `Cc1ccc(C(=O)/C=C/c2cccc(O)c2)c(C)c1` [Compound F14, (E)-1-(2,4-dimethylphenyl)-3-(3-hydroxyphenyl)propyl-2-en-1-one], in the test on NLRP3 inflammasome, the “protein expression levels of pro-IL-1β, pro-caspase-1, ASC, NEK7 and NLRP3” value is listed as “no significant effect”; the “protein levels of IL-1β and caspase-1 in the cell supernatant” value was “concentration-dependent inhibitory effect”. In addition, in test [1] (DSS mice), the colonic adhesion result is “effectively alleviated” and the “goblet cells in colon tissue (histology)” value was “inhibits the reduction”. Also, in test [1] (vs model group (DSS)), the “disease activity index (DAI)” value was “inhibits the increase” and the “weight loss in mice” value was “significantly alleviates”. For the same molecule, the inhibition at 20 µM in test [2] (20 µM, LPS/nigericin-treated BMDM cells, mean ± S.E.M. (n = 3), read-out: IL-1β Inhibition Rate (%)) came to 95.4 ± 2.56%. The IC50 in test [2] (BMDM, LPS/nigericin, three independent experiments, read-out: IL-1β release IC50 in BMDMs) amounted to 740 nM. In addition, in the test with BMDM cells (MitoTracker, MitoSOX), the “mitochondrial membrane potential and fluorescence intensity of mitochondrial superoxide anions” value is given as “no significant improvement”. In addition, in the test on BMDM cells (flow cytometry), the “total ROS levels” value is given as “no significant change”.

By inhibition is commonly meant how much of the control response was suppressed. Usually IC50 stands for the concentration at which inhibition is half-maximal.
